# In publication PMC5218480 (PLoS ONE, 2017):
# Test system: MV-4-11 cells
# Experiment: Gene expression microarray analysis (Affymetrix PrimeView) and GSEA
# Format: cell-based, human
# Parameters: RFU PODN (11730768_x_at) / Fold change /veh PODN (11730768_x_at) / RFU LINC00158 (11744669_a_at) / Fold change /veh LINC00158 (11744669_a_at) / RFU DUSP10 (11751237_a_at) / Fold change /veh DUSP10 (11751237_a_at) / RFU ID3 (11757404_x_at) / Fold change /veh ID3 (11757404_x_at) / RFU PLEKHG5 (11737974_s_at) / Fold change /veh PLEKHG5 (11737974_s_at) / RFU LRRC4B (11730491_at) / Fold change /veh LRRC4B (11730491_at) / RFU GIMAP4 (11747438_a_at) / Fold change /veh GIMAP4 (11747438_a_at) / RFU KRT8 (11758183_x_at) / Fold change /veh KRT8 (11758183_x_at) / RFU CNN1 (11734310_a_at) / Fold change /veh CNN1 (11734310_a_at) / RFU VPS37D (11726825_at) / Fold change /veh VPS37D (11726825_at) / RFU C10orf10 (11716522_x_at) / Fold change /veh C10orf10 (11716522_x_at) / RFU KIR2DL2 /// KIR2DL4 /// KIR2DL5A /// KIR2DL5B /// KIR2DS1 /// KIR2DS2 /// KIR2DS3 /// KIR2DS4 /// KIR3DL3 /// KIR3DL3 /// KIR3DS1 (11738374_at) / Fold change /veh KIR2DL2 /// KIR2DL4 /// KIR2DL5A /// KIR2DL5B /// KIR2DS1 /// KIR2DS2 /// KIR2DS3 /// KIR2DS4 /// KIR3DL3 /// KIR3DL3 /// KIR3DS1 (11738374_at) / RFU C1QL1 (11718748_at) / Fold change /veh C1QL1 (11718748_at) / RFU TMPRSS4 (11747572_a_at) / Fold change /veh TMPRSS4 (11747572_a_at) / RFU HAMP (11756126_x_at) / Fold change /veh HAMP (11756126_x_at) / RFU RNFT2 (11725882_a_at) / Fold change /veh RNFT2 (11725882_a_at) / RFU NR4A2 (11747474_a_at) / Fold change /veh NR4A2 (11747474_a_at) / RFU ABCC12 (11746883_a_at) / Fold change /veh ABCC12 (11746883_a_at) / RFU TMEM136 (11760407_x_at) / Fold change /veh TMEM136 (11760407_x_at) / RFU CLDN22 /// WWC2 (11732394_at) / Fold change /veh CLDN22 /// WWC2 (11732394_at) / RFU HLA-DPB1 (11760878_x_at) / Fold change /veh HLA-DPB1 (11760878_x_at) / RFU SPINT1 (11716480_a_at) / Fold change /veh SPINT1 (11716480_a_at) / RFU GAP43 (11754022_s_at) / Fold change /veh GAP43 (11754022_s_at) / RFU A4GNT (11735810_at) / Fold change /veh A4GNT (11735810_at) / RFU PRB3 (11715151_x_at) / Fold change /veh PRB3 (11715151_x_at) / RFU TUBB4B (11761932_at) / Fold change /veh TUBB4B (11761932_at) / RFU CAPN14 (11732068_a_at) / Fold change /veh CAPN14 (11732068_a_at) / RFU TMCC2 (11721928_a_at) / Fold change /veh TMCC2 (11721928_a_at) / RFU IRGQ (11745062_a_at) / Fold change /veh IRGQ (11745062_a_at) / RFU FAM174B (11720279_a_at) / Fold change /veh FAM174B (11720279_a_at) / RFU TMPRSS4 (11748680_a_at) / Fold change /veh TMPRSS4 (11748680_a_at) / RFU FAM212B (11763350_a_at) / Fold change /veh FAM212B (11763350_a_at) / RFU PLEKHG5 (11743358_a_at) / Fold change /veh PLEKHG5 (11743358_a_at) / RFU ZSCAN30 (11745921_a_at) / Fold change /veh ZSCAN30 (11745921_a_at) / RFU CMKLR1 (11741424_a_at) / Fold change /veh CMKLR1 (11741424_a_at) / RFU LOC101060620 /// MAPK8IP1 (11723275_at) / Fold change /veh LOC101060620 /// MAPK8IP1 (11723275_at) / RFU SPTSSB (11747773_x_at) / Fold change /veh SPTSSB (11747773_x_at) / RFU PRSS12 (11739890_at) / Fold change /veh PRSS12 (11739890_at) / RFU BIN1 (11741810_x_at) / Fold change /veh BIN1 (11741810_x_at) / RFU WNT11 (11732464_a_at) / Fold change /veh WNT11 (11732464_a_at) / RFU C10orf10 (11716521_a_at) / Fold change /veh C10orf10 (11716521_a_at) / RFU C5orf56 (11738089_at) / Fold change /veh C5orf56 (11738089_at) / RFU CYB561 (11721691_x_at) / Fold change /veh CYB561 (11721691_x_at) / RFU ANKRD19P (11752326_a_at) / Fold change /veh ANKRD19P (11752326_a_at) / RFU OR2T12 /// OR2T33 /// OR2T8 (11738714_s_at) / Fold change /veh OR2T12 /// OR2T33 /// OR2T8 (11738714_s_at) / RFU VCAN (11748164_a_at) / Fold change /veh VCAN (11748164_a_at) / RFU JSRP1 (11732532_at) / Fold change /veh JSRP1 (11732532_at) / RFU KRTAP10-11 (11738290_x_at) / Fold change /veh KRTAP10-11 (11738290_x_at) / RFU MYO3A (11730013_a_at) / Fold change /veh MYO3A (11730013_a_at) / RFU EBF3 (11725865_a_at) / Fold change /veh EBF3 (11725865_a_at) / RFU CAMK2N1 (11719241_x_at) / Fold change /veh CAMK2N1 (11719241_x_at) / RFU C5orf56 (11738088_a_at) / Fold change /veh C5orf56 (11738088_a_at) / RFU OLFML3 (11715873_a_at) / Fold change /veh OLFML3 (11715873_a_at) / RFU LOC100653217 /// NTM (11731650_a_at) / Fold change /veh LOC100653217 /// NTM (11731650_a_at) / RFU MAPK11 (11762145_a_at) / Fold change /veh MAPK11 (11762145_a_at) / RFU FIZ1 (11724087_x_at) / Fold change /veh FIZ1 (11724087_x_at) / RFU OASL (11726364_x_at) / Fold change /veh OASL (11726364_x_at) / RFU SOX15 (11748057_x_at) / Fold change /veh SOX15 (11748057_x_at) / RFU CD79A (11719716_a_at) / Fold change /veh CD79A (11719716_a_at) / RFU HIST1H1D (11736915_at) / Fold change /veh HIST1H1D (11736915_at) / RFU CASKIN2 (11723855_a_at) / Fold change /veh CASKIN2 (11723855_a_at) / RFU LOC730098 (11760151_x_at) / Fold change /veh LOC730098 (11760151_x_at) / RFU OR4N2 (11742367_at) / Fold change /veh OR4N2 (11742367_at) / RFU PRRT2 (11749266_a_at) / Fold change /veh PRRT2 (11749266_a_at) / RFU SNX32 (11753110_a_at) / Fold change /veh SNX32 (11753110_a_at) / RFU CDHR5 (11726645_a_at) / Fold change /veh CDHR5 (11726645_a_at) / RFU RCAN1 (11760418_a_at) / Fold change /veh RCAN1 (11760418_a_at) / RFU FAM167A (11723789_a_at) / Fold change /veh FAM167A (11723789_a_at) / RFU FAM26E (11764081_at) / Fold change /veh FAM26E (11764081_at) / RFU ISYNA1 (11749810_s_at) / Fold change /veh ISYNA1 (11749810_s_at) / RFU ACY1 (11761880_at) / Fold change /veh ACY1 (11761880_at) / RFU 11764098_at / Fold change /veh 11764098_at / RFU SAMD14 (11745864_x_at) / Fold change /veh SAMD14 (11745864_x_at) / RFU NPB (11741838_a_at) / Fold change /veh NPB (11741838_a_at) / RFU TMPRSS6 (11731388_a_at) / Fold change /veh TMPRSS6 (11731388_a_at) / RFU KRTAP10-2 (11738614_at) / Fold change /veh KRTAP10-2 (11738614_at) / RFU ARHGAP8 /// PRR5-ARHGAP8 (11727945_x_at) / Fold change /veh ARHGAP8 /// PRR5-ARHGAP8 (11727945_x_at) / RFU KRTAP5-7 /// NADSYN1 (11734609_at) / Fold change /veh KRTAP5-7 /// NADSYN1 (11734609_at) / RFU RASL12 (11751679_a_at) / Fold change /veh RASL12 (11751679_a_at) / RFU CDKN2B (11736163_a_at) / Fold change /veh CDKN2B (11736163_a_at) / RFU PRF1 (11729649_at) / Fold change /veh PRF1 (11729649_at) / RFU, ZNF638 /// ZNF638-IT1 / Fold change vs veh, ZNF638 /// ZNF638-IT1 / RFU, PANK3 / Fold change vs veh, PANK3 / RFU, SH3YL1 / Fold change vs veh, SH3YL1 / RFU, ZEB2 / Fold change vs veh, ZEB2 / RFU, NRIP1 / Fold change vs veh, NRIP1 / RFU, PTTG1IP / Fold change vs veh, PTTG1IP / RFU, CAPN2 / Fold change vs veh, CAPN2 / RFU, MED14 / Fold change vs veh, MED14 / RFU, SNORA58 / Fold change vs veh, SNORA58 / RFU, C1orf63 / Fold change vs veh, C1orf63 / RFU, LRRFIP1 / Fold change vs veh, LRRFIP1 / RFU, NDUFAF7 / Fold change vs veh, NDUFAF7 / RFU, SLC12A2 / Fold change vs veh, SLC12A2 / RFU, IBTK / Fold change vs veh, IBTK / RFU, ESF1 / Fold change vs veh, ESF1 / Fold change vs veh, TMEM50B / RFU, TAOK1 / Fold change vs veh, TAOK1 / RFU, ACBD3 / Fold change vs veh, ACBD3 / RFU, TMA16 / Fold change vs veh, TMA16 / RFU, RWDD3 / Fold change vs veh, RWDD3 / RFU, BCAT1 / Fold change vs veh, BCAT1 / RFU, EDEM3 / Fold change vs veh, EDEM3 / RFU, TMEM33 / Fold change vs veh, TMEM33 / RFU, WDR75 / Fold change vs veh, WDR75 / RFU, AHCTF1 / Fold change vs veh, AHCTF1 / RFU, TFRC / Fold change vs veh, TFRC / RFU, ZDHHC17 / Fold change vs veh, ZDHHC17 / RFU, NOM1 / Fold change vs veh, NOM1 / RFU, ARL8B / Fold change vs veh, ARL8B / RFU, ZBTB11 / Fold change vs veh, ZBTB11 / RFU, TAMM41 / Fold change vs veh, TAMM41 / RFU, KIAA1704 /// LOC100996395 / Fold change vs veh, KIAA1704 /// LOC100996395 / RFU, ING1 / Fold change vs veh, ING1 / RFU, TRMT61B / Fold change vs veh, TRMT61B / RFU, FUBP3 / Fold change vs veh, FUBP3 / RFU, TP53 / Fold change vs veh, TP53 / RFU, TNKS2 / Fold change vs veh, TNKS2 / RFU, ZFP14 / Fold change vs veh, ZFP14 / RFU, ACTR2 / Fold change vs veh, ACTR2 / RFU, PPP3R1 / Fold change vs veh, PPP3R1 / RFU, PIK3R1 / Fold change vs veh, PIK3R1 / RFU, HNRNPA1 / Fold change vs veh, HNRNPA1 / RFU, RNF170 / Fold change vs veh, RNF170 / RFU, ZNF28 / Fold change vs veh, ZNF28 / RFU, RNGTT / Fold change vs veh, RNGTT / RFU, OGT / Fold change vs veh, OGT / RFU, BRD1 / Fold change vs veh, BRD1 / RFU, MARS / Fold change vs veh, MARS / RFU, ZNF655 / Fold change vs veh, ZNF655 / RFU, FAHD1 / Fold change vs veh, FAHD1 / RFU, BDP1 / Fold change vs veh, BDP1 / RFU, LRRCC1 / Fold change vs veh, LRRCC1 / RFU, ARID1A / Fold change vs veh, ARID1A / RFU, ZNF146 / Fold change vs veh, ZNF146 / RFU, ZNF330 / Fold change vs veh, ZNF330 / RFU, GPN3 / Fold change vs veh, GPN3 / RFU, C9orf123 / Fold change vs veh, C9orf123 / RFU, N4BP2L2 / Fold change vs veh, N4BP2L2 / RFU, ARFIP1 / Fold change vs veh, ARFIP1 / RFU, FAM179B / Fold change vs veh, FAM179B / RFU, BCL10 / Fold change vs veh, BCL10 / RFU, UHRF1BP1L / Fold change vs veh, UHRF1BP1L / RFU, BET1 / Fold change vs veh, BET1 / RFU, CNOT2 / Fold change vs veh, CNOT2 / RFU, ZNF268 / Fold change vs veh, ZNF268 / Fold change vs veh, ZNF507 / RFU, DGCR2 / Fold change vs veh, DGCR2 / RFU, WDSUB1 / Fold change vs veh, WDSUB1 / Fold change vs veh, HSP90B1 /// MIR3652 / RFU, ADSS / Fold change vs veh, ADSS / RFU, GK / Fold change vs veh, GK / RFU, ZNF148 / Fold change vs veh, ZNF148 / RFU, TAF9 / Fold change vs veh, TAF9 / RFU, SLC1A5 / Fold change vs veh, SLC1A5 / RFU, SLMO2 / Fold change vs veh, SLMO2 / RFU, ABCC4 / Fold change vs veh, ABCC4 / RFU, LOC101060439 /// RAP1B / Fold change vs veh, LOC101060439 /// RAP1B / RFU, RFX7 / Fold change vs veh, RFX7 / RFU, GTPBP10 / Fold change vs veh, GTPBP10 / RFU, CNEP1R1 / Fold change vs veh, CNEP1R1 / RFU, BIVM-ERCC5 /// ERCC5 / Fold change vs veh, BIVM-ERCC5 /// ERCC5 / RFU, ILF3 / Fold change vs veh, ILF3 / RFU 11762660_at / Fold change /veh 11762660_at / RFU VCAN (11757783_s_at) / Fold change /veh VCAN (11757783_s_at) / RFU DDX43 (11728927_at) / Fold change /veh DDX43 (11728927_at) / RFU KRT8 (11758188_x_at) / Fold change /veh KRT8 (11758188_x_at) / RFU NKD1 (11759106_at) / Fold change /veh NKD1 (11759106_at) / RFU SRD5A1 (11742802_a_at) / Fold change /veh SRD5A1 (11742802_a_at) / RFU TPSAB1 /// TPSB2 (11721975_s_at) / Fold change /veh TPSAB1 /// TPSB2 (11721975_s_at) / RFU GSTM3 (11746129_a_at) / Fold change /veh GSTM3 (11746129_a_at) / RFU IL23R (11737362_x_at) / Fold change /veh IL23R (11737362_x_at) / RFU TMEM51 (11727254_a_at) / Fold change /veh TMEM51 (11727254_a_at) / RFU PIWIL2 (11732686_x_at) / Fold change /veh PIWIL2 (11732686_x_at) / RFU ORM1 (11744905_x_at) / Fold change /veh ORM1 (11744905_x_at) / RFU CCDC152 (11743942_at) / Fold change /veh CCDC152 (11743942_at) / RFU ECM1 (11717891_a_at) / Fold change /veh ECM1 (11717891_a_at) / RFU IL23R (11748794_a_at) / Fold change /veh IL23R (11748794_a_at) / RFU TNFAIP8L3 (11732012_x_at) / Fold change /veh TNFAIP8L3 (11732012_x_at) / RFU MBOAT4 (11741988_at) / Fold change /veh MBOAT4 (11741988_at) / RFU 11764193_at / Fold change /veh 11764193_at / RFU TMEM53 (11763286_at) / Fold change /veh TMEM53 (11763286_at) / RFU MAGEB2 (11727129_at) / Fold change /veh MAGEB2 (11727129_at) / RFU TMEM200A (11744735_a_at) / Fold change /veh TMEM200A (11744735_a_at) / RFU CCDC152 (11751479_a_at) / Fold change /veh CCDC152 (11751479_a_at) / RFU FAM211A (11726209_a_at) / Fold change /veh FAM211A (11726209_a_at) / RFU RGS16 (11746705_a_at) / Fold change /veh RGS16 (11746705_a_at) / RFU VCAN (11755009_s_at) / Fold change /veh VCAN (11755009_s_at) / RFU RHOB (11743442_s_at) / Fold change /veh RHOB (11743442_s_at) / RFU RGS16 (11720943_a_at) / Fold change /veh RGS16 (11720943_a_at) / RFU RGS16 (11720944_at) / Fold change /veh RGS16 (11720944_at) / RFU, VPS4B / Fold change vs veh, VPS4B / RFU, CREB1 / Fold change vs veh, CREB1 / RFU, DNAJC13 / Fold change vs veh, DNAJC13 / RFU, GNAQ / Fold change vs veh, GNAQ / RFU, CDK5R1 / Fold change vs veh, CDK5R1 / RFU, ZRANB3 / Fold change vs veh, ZRANB3 / RFU, CUL4A / Fold change vs veh, CUL4A / RFU, CCNY / Fold change vs veh, CCNY / RFU, UFL1 / Fold change vs veh, UFL1 / RFU, COG3 / Fold change vs veh, COG3 / RFU, DIAPH2 / Fold change vs veh, DIAPH2 / RFU, SKA2 / Fold change vs veh, SKA2 / RFU, AFF3 / Fold change vs veh, AFF3 / RFU, LMF1 / Fold change vs veh, LMF1 / RFU, IPO11 / Fold change vs veh, IPO11 / RFU, DFFB / Fold change vs veh, DFFB / RFU, FOXP1 / Fold change vs veh, FOXP1 / RFU, CARD8 / Fold change vs veh, CARD8 / RFU, STRN3 / Fold change vs veh, STRN3 / RFU, ADK / Fold change vs veh, ADK / RFU, RASSF2 / Fold change vs veh, RASSF2 / RFU, WIPF1 / Fold change vs veh, WIPF1 / RFU, LARP1B / Fold change vs veh, LARP1B / RFU, RASA1 / Fold change vs veh, RASA1 / RFU, RB1 / Fold change vs veh, RB1 / RFU, PPFIA1 / Fold change vs veh, PPFIA1 / RFU, MAT2A / Fold change vs veh, MAT2A / RFU, CCT5 / Fold change vs veh, CCT5 / RFU, WDR92 / Fold change vs veh, WDR92 / RFU, CUX1 / Fold change vs veh, CUX1 / RFU, TTC7A / Fold change vs veh, TTC7A / RFU, TMEM135 / Fold change vs veh, TMEM135 / RFU, DEPTOR / Fold change vs veh, DEPTOR / RFU, CPM / Fold change vs veh, CPM / RFU, DNAJB6 / Fold change vs veh, DNAJB6 / RFU, CACNA2D3 / Fold change vs veh, CACNA2D3 / RFU, DTX4 / Fold change vs veh, DTX4 / RFU, TFCP2 / Fold change vs veh, TFCP2 / RFU, GMCL1 /// GMCL1P1 / Fold change vs veh, GMCL1 /// GMCL1P1 / RFU, AEBP2 / Fold change vs veh, AEBP2 / RFU, SNHG1 /// SNORD22 /// SNORD25 /// SNORD26 /// SNORD27 /// SNORD28 /// SNORD29 /// SNORD31 / Fold change vs veh, SNHG1 /// SNORD22 /// SNORD25 /// SNORD26 /// SNORD27 /// SNORD28 /// SNORD29 /// SNORD31 / Fold change (Aza/veh), C12orf56 (ProbeSet 11735607_a_at) / Fold change (ACY-1035/veh), C12orf56 (ProbeSet 11735607_a_at) / Fold change (Aza/veh), FGFR1OP (ProbeSet 11751329_s_at) / Fold change (ACY-1035/veh), FGFR1OP (ProbeSet 11751329_s_at) / Fold change (Aza/veh), VPS36 (ProbeSet 11739960_a_at) / Fold change (ACY-1035/veh), VPS36 (ProbeSet 11739960_a_at) / RFU SYPL1 (11715823_x_at) / Fold change /veh SYPL1 (11715823_x_at) / RFU IGFBP7 (11715501_s_at) / Fold change /veh IGFBP7 (11715501_s_at) / RFU REEP3 (11722064_at) / Fold change /veh REEP3 (11722064_at) / RFU IGLL1 (11728026_x_at) / Fold change /veh IGLL1 (11728026_x_at): dose or concentration left out as unconfirmed
# Settings: ProbeSet 11728879_at; LIST B
smiles,measurement,value
Nc1ccc(-c2cccs2)cc1NC(=O)c1ccc2c(c1)cc(C1CC1)n2CCN1CCOCC1 [ACY-1035],"Fold change vs veh, PPP3R1",0.99
